In data set [1] the target is T1, guinea-pig skeletal muscle membranes (1,4-dihydropyridine receptors / calcium channel) (Cavia porcellus, UniProt A0A286X7I0).
T1 construct: membrane fractions from guinea-pig brain, cardiac muscle and skeletal muscle; from tissue; host or cells: guinea-pig skeletal muscle membranes
Nature of the data set: Competition radioreceptor assay with the ^125 I-labelled 1,4-dihydropyridine of Example 2. It counts as binding. The procedure: In order to separate the free ligand from the bound ligand, 10% (w/v) polyethylene glycol 6000 was added to ice-cold 10 mM TRIS HCl buffer, pH 7.4, followed by 20 mM MgCl2 (3.5 ml), the sample was diluted, suction filtered in vacuo over a glass fibre filter, and the glass fibre filter was rewashed twice with 3.5 ml of the same buffer. The particle-bound radioactivity retained on the filters was then measured.
The data in Table 1 are mean values (±asymptotic standard deviation) from 3 independent experiments in which various calcium antagonists and derivatives or precursors of calcium antagonists were used as competitors with the ^125 I-labelled 1,4-dihydropyridine ("ligand") obtained in Example 2. Guinea-pig skeletal muscle membranes were used as receptor material. The concentration of the labelled ligand was 20-30 pmole/l and the experimental temperature was 25° C. 6 to 9 different concentrations of the checked substances were used (in each case as duplicate) and the measured binding data were optimally adapted by means of a computer program (DeLean A., Munson P. J., Rodbard D. (1978). Simultaneous analysis of families of sigmoid curves: application to bioassay, radioligand assay and physiological dose-response curves. Am J. Physiol. 4 E97-102). The stereospecifity of the binding for chiral 1,4-dihydropyridines was investigated as an important criterion for the receptor binding of the ^125 I-labelled 1,4-dihydropyridine in group 1. […] The EC50 value is the concentration of the substance stimulating a semi-maximum specific binding of the ligand.

Data set [2] addresses T2, skeletal muscle membranes (1,4-dihydropyridine receptors) (Cavia porcellus, UniProt A0A286X7I0).
T2 construct: membrane fractions from guinea-pig brain, cardiac muscle and skeletal muscle; from tissue; host or cells: guinea-pig skeletal muscle membranes
As to the kind of experiment: Saturation analysis, binding of ^125 I-labelled 1,4-dihydropyridine to skeletal muscle membranes. Also on record: species or system guinea-pig. The note with it: 25° C. The procedure:
(§1) Aliquots of the obtained and ^125 I-labelled 1,4-dihydropyridine are dried in a stream of nitrogen, incubated with buffer (50 mM TRIS-HCl, pH 7.4, to which the protease inhibitor phenylmethylsulphonyl fluoride has been added (0.1 mmole/l)) and membrane fractions from guinea-pig brain, cardiac muscle and skeletal muscle (prepared as described in Drug Development 9: 63-98 (1983); Naunyn-Schmiedeberg's Arch. Pharmacol. 321: 80-83 (1983) and FEBS Lett 148: 331-337 (1982)) at 25° C. in 0.1 ml volume until equilibrium is reached, and the specific binding (defined as the difference in the binding of the ^125 I-labelled 1,4-dihydropyridine in the absence and presence of 1 μmole/l of Nimodipin) is measured by means of the filtration technique (to separate bound and free ^125 I-labelled 1,4-dihydropyridine). […] The particle-bound radioactivity retained on the filters was then measured.
(§2) The following formula was used to calculate the concentration of the free ligand: (T. a)-B, where T is the total concentration of the ligand, a is a factor describing the binding capacity of the ligand, and B is the concentration of the specifically bound ligand in equilibrium. The factor a was determined experimentally by saturating the radioactive ligand with binding sites (receptors) (described in FEBS Lett. 148, 331-337, 1982; Naunyn Schmiedeberg's Arch. Pharmacol 321, 7-10, 1982). […]

Data set [3] has as its target T3, 1,4-dihydropyridine receptors in guinea-pig brain membranes (Cavia porcellus, UniProt O35505).
T3 construct: 1,4-dihydropyridine receptors in guinea-pig brain membranes; from tissue; host or cells: guinea-pig brain membranes
Nature of the data set: Saturation analysis, binding of ^125 I-labelled 1,4-dihydropyridine to brain membranes. The note with it: 25° C., read-out: dissociation constant (conclusion). As for the experimental part: as §1, §2

Data set [4] is described as follows: Stability of the ^125 I-labelled 1,4-dihydropyridine (HPLC, thin layer chromatography). Format: physicochemical. As for the experimental part:
The following formula was used to calculate the concentration of the free ligand: (T. a)-B, where T is the total concentration of the ligand, a is a factor describing the binding capacity of the ligand, and B is the concentration of the specifically bound ligand in equilibrium. The factor a was determined experimentally by saturating the radioactive ligand with binding sites (receptors) (described in FEBS Lett. 148, 331-337, 1982; Naunyn Schmiedeberg's Arch. Pharmacol 321, 7-10, 1982). The factor "a" was 0.5 for the asymmetric 1,4-dihydropyridine derivative, in agreement with the theoretically required capacity of the receptor (R) and (S) to differentiate enantiomers of the ^125 I-labelled 1,4-dihydropyridine (stereospecifity of the binding). The ^125 I-labelled 1,4-dihydropyridine is the racemic mixture of (R) and (S) enantiomers. A dissociation constant of 350 pmole/l (25° C.) was found for muscle membranes (not illustrated). The stability of the ^125 I-labelled 1,4-dihydropyridine was checked under the following conditions by conventional methods (HPLC, thin layeer chromatography): buffer 50 mM TRIS HCl, pH 7.4, 25° C., 4 hours; muscle membrane in buffer, 25° C., 4 hours; as well as storage in benzene or absolute ethanol at -20° C. for up to 21 days after preparation of the ligand. In no case were the radiochemical impurities greater than 10%.

[5] abbreviates: guinea-pig skeletal muscle membranes, ligand 20-30 pmole/l, 25° C., mean ± asymptotic standard deviation, 3 independent experiments.
The mark [6] stands for this setting: read-out: IC50 (50% inhibition of the specific binding of the ligand in the radioreceptor assay), guinea-pig skeletal muscle membranes, ligand 20-30 pmole/l, 25° C., mean ± asymptotic standard deviation, 3 independent experiments.

Like-named read-outs stand apart in the source and are kept apart here.

T1 sequence (A0A286X7I0 1-1867): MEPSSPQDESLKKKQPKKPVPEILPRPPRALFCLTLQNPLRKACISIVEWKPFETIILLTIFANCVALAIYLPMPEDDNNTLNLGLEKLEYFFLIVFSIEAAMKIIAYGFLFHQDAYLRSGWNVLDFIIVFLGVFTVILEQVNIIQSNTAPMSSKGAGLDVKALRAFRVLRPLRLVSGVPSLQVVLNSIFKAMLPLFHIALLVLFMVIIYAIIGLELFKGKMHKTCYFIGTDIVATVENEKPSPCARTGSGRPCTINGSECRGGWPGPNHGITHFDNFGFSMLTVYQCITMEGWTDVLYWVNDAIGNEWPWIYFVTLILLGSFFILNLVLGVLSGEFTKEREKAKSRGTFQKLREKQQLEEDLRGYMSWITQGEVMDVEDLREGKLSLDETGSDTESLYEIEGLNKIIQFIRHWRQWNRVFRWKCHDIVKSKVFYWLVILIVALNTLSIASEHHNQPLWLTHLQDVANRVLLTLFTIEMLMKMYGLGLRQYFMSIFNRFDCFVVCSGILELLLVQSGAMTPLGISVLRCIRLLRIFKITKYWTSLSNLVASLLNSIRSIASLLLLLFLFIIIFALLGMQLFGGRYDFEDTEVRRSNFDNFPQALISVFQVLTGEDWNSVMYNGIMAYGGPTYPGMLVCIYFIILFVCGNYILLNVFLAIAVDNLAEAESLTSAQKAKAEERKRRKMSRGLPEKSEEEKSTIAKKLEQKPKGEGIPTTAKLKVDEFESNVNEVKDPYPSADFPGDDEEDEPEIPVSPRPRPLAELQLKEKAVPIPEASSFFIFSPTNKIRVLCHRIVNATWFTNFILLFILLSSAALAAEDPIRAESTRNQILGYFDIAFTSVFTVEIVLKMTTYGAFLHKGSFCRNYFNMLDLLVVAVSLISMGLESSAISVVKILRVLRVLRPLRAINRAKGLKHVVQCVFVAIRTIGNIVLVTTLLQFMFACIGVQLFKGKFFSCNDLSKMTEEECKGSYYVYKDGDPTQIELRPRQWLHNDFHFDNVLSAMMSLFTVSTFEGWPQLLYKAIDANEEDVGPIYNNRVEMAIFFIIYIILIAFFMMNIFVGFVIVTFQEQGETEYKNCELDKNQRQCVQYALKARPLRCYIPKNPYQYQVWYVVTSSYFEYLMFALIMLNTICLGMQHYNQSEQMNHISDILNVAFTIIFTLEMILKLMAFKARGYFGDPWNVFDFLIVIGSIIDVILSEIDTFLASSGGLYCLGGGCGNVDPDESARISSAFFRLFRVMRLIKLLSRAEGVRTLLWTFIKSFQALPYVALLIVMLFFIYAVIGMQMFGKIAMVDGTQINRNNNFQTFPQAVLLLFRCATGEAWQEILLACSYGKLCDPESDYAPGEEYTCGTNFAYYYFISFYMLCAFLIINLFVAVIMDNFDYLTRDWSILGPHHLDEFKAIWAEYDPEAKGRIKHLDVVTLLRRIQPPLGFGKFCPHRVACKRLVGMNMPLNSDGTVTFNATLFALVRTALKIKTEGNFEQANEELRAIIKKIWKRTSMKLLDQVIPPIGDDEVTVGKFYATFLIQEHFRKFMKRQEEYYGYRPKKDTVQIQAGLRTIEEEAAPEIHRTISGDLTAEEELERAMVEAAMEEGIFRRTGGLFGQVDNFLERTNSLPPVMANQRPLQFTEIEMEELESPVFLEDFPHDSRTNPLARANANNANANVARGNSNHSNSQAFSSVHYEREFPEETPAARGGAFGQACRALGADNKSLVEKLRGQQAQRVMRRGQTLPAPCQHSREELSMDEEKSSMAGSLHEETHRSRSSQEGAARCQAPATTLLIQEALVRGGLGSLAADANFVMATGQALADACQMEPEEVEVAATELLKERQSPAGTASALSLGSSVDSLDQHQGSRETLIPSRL
T2 sequence (A0A286X7I0 1-1867): as above
T3 sequence (O35505 whole entry): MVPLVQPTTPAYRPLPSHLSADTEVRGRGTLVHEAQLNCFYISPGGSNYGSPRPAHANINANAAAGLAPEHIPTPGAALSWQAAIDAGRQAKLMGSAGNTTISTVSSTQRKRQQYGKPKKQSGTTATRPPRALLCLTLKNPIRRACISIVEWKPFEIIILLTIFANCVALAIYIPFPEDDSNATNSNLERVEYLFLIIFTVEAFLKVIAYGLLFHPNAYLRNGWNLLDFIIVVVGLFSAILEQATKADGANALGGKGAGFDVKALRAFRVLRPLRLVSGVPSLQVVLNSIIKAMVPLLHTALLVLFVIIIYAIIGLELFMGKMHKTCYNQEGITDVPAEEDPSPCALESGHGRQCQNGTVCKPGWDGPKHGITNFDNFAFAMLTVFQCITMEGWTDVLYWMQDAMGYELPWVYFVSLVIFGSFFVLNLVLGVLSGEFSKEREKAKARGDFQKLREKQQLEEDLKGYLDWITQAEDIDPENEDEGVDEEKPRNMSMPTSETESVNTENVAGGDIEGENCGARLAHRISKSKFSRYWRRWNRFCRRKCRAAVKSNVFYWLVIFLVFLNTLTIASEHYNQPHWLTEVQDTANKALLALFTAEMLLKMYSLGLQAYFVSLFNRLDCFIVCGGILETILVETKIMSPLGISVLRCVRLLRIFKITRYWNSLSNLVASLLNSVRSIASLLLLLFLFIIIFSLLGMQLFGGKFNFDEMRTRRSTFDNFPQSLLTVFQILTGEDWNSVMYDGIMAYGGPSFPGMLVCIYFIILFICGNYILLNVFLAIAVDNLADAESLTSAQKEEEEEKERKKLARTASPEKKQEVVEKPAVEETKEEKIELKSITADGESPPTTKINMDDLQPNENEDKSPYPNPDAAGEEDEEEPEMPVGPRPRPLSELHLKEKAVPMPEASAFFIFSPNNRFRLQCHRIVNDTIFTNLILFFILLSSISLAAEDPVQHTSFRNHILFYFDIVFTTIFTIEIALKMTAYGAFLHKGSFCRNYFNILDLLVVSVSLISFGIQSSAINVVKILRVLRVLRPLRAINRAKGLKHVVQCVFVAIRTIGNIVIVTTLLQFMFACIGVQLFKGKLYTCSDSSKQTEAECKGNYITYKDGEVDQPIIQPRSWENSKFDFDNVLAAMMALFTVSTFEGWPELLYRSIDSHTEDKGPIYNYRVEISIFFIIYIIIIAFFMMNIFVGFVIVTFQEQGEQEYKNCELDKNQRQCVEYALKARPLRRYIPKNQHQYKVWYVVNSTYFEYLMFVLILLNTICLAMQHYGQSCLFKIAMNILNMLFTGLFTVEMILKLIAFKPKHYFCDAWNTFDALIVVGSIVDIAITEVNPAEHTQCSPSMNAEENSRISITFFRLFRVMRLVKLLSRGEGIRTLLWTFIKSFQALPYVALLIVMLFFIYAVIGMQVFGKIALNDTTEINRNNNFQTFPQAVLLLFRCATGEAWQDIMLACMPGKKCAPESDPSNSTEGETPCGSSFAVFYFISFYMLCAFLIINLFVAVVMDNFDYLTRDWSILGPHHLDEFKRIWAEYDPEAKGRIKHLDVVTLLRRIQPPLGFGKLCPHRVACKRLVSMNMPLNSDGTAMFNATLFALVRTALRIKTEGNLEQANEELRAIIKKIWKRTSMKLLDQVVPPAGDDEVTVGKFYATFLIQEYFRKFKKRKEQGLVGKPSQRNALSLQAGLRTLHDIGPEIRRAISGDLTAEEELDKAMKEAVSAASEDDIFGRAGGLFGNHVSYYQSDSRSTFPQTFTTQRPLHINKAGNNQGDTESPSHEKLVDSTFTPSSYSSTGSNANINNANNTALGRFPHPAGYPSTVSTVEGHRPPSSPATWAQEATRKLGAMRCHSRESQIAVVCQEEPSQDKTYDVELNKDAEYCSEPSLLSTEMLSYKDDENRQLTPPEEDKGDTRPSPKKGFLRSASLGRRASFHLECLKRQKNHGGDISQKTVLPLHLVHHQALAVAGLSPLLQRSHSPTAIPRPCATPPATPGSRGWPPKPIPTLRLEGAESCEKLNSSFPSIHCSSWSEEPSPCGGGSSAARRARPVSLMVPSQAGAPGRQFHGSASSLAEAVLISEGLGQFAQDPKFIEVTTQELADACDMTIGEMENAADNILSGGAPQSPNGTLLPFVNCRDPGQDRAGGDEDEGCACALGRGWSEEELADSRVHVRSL

The IC50 is the point on the concentration scale where inhibition reaches its midpoint. With `COc1ccc(CCN(C)CCCC(C#N)(c2cc(OC)c(OC)c(OC)c2)C(C)C)cc1OC` (single isomer, unassigned; (+)) [(+)Methoxyverapamil, Methoxyverapamil], the IC50 in data set [1] (setting [5]) came to 190 ± 50 nM.
In the case of `COc1ccc([C@H]2Sc3ccccc3N(CCN(C)C)C(=O)[C@H]2OC(C)=O)cc1` [l-cis-Diltiazem], the concentration for half-maximal inhibition (IC50) in data set [1] worked out at 3000 ± 1600 nM.
One may read the EC50 as the concentration needed to bring the measured effect to its halfway point. As to `COc1ccc([C@@H]2Sc3ccccc3N(CCN(C)C)C(=O)[C@@H]2OC(C)=O)cc1` [d-cis-Diltiazem], in data set [1], the EC50 was 960 ± 310 nM.
As to `COc1ccc(CCN(C)CCC[C@@](C#N)(c2cc(OC)c(OC)c(OC)c2)C(C)C)cc1OC` [(-)Methoxyverapamil, Methoxyverapamil], in data set [1] (setting [5]), the IC50 was found to be 21 ± 8 nM.
As for `CCOC(=O)C1=C(C)NC(C)=C(C(=O)OCCNC(=O)CCc2ccc(O)c([125I])c2)C1c1ccccc1C(F)(F)F` (stereo not drawn) [^125 I-labelled 1,4-dihydropyridine], the Kd in data set [2] (muscle membranes, read-out: dissociation constant (KD)) is 0.35 nM; in data set [2] (skeletal muscle membranes, read-out: dissociation constant (conclusion)), less than 1 nM; in data set [3], less than 1 nM. Besides, the “stability (conclusion)” value in data set [4] is listed as “sufficient stability”. Besides, in data set [4] (50 mM TRIS HCl pH 7.4, 25° C., 4 hours, muscle membrane in buffer, 25° C., storage in benzene or absolute ethanol at -20° C. up to 21 days), the “radiochemical impurities (stability)” value was no more than 10%.
Regarding `COC(=O)C1=C(C)NC(C)=C(C(=O)OC(C)C)C1c1cccc2nonc12` (single isomer, unassigned; (-)) [(-)205-034, isopropyl 4-(2,1,3-benzoxadiazole-4-yl)-1,4-dihydro-2,6-dimethyl-5-methoxycarbonylpyridine-3-carboxylate], the IC50 in data set [1] (setting [5]) was 198 ± 40 nM.
Still for that read-out and setting: the value for `COC(=O)C1=C(C)NC(C)=C(C(=O)OC(C)C)C1c1cccc2nonc12` (single isomer, unassigned; (+)) [(+)205-033, isopropyl 4-(2,1,3-benzoxadiazole-4-yl)-1,4-dihydro-2,6-dimethyl-5-methoxycarbonylpyridine-3-carboxylate] was 2 ± 0.05 nM.
The same measure, in the same setting: then `COC(=O)C1=C(C)NC(C)=C(C(=O)OC(C)C)C1c1cccc([N+](=O)[O-])c1` (single isomer, unassigned; (+)) [(+)Bay e 6927, isopropylmethyl 1,4-dihydro-2,6-dimethyl-4-(3-nitrophenyl)-3,5-pyridinedicarboxylate], with 420 ± 67 nM; and `COC(=O)C1=C(C)NC(C)=C(C(=O)OC(C)C)C1c1cccc([N+](=O)[O-])c1` (single isomer, unassigned; (-)) [(-)Bay e 6927, isopropylmethyl 1,4-dihydro-2,6-dimethyl-4-(3-nitrophenyl)-3,5-pyridinedicarboxylate], with 3 ± 0.04 nM.
On the same count and under the same terms, then `COC(=O)C1=C(C)NC(C)=C(C(=O)OCCN(C)Cc2ccccc2)C1c1cccc([N+](=O)[O-])c1` (single isomer, unassigned; (+)) [(+)Nicardipine, 2,6-dimethyl-4-(3 nitrophenyl)-1,4-dihydropyridine-3,5-dicarboxylic acid 3-2(N-benzyl-N-methylamino)-ethylester-5-methylester], with 7 ± 0.8 nM.
Turning to `COC(=O)C1=C(C)NC(C)=C(C(=O)OCCN(C)Cc2ccccc2)C1c1cccc([N+](=O)[O-])c1` (single isomer, unassigned; (-)) [(-)Nicardipine, 2,6-dimethyl-4-(3 nitrophenyl)-1,4-dihydropyridine-3,5-dicarboxylic acid 3-2(N-benzyl-N-methylamino)-ethylester 5-methylester], the IC50 in data set [1] (setting [5]) came to 42 ± 3 nM.
As for “1,4-dihydro-2,6-dimethyl-4-(2-trifluoromethylphenyl)-3,5-pyridinecarboxylic acid 2-(aminoethyl)ethyl ester [Bay K 8644]”, in data set [1] (setting [6]), the IC50 was 37 ± 5 nM.
Turning to `CCOC(=O)C1=C(C)NC2=C(C(=O)OC2)C1c1ccccc1OC(F)F` (stereo not drawn) [CGP 28392], the IC50 in data set [1] (setting [5]) was 1250 ± 180 nM.
Take `CCOC(=O)C1=C(C)NC(C)=C(C(=O)O)C1c1cccc([N+](=O)[O-])c1` (stereo not drawn) [Bay M 5579]: the IC50 in data set [1] (setting [6]) was determined as 1860 ± 300 nM.

(Values after patent US4784958A, “1,4-dihydropyridine derivatives and 1,4-dihydroquinoline derivatives radioactively labelled with ^125 I, their preparation, and their use in testing medicaments” (priority 1983, dated 1988).)
